A value given as a limit tells only on which side of the number the result lay.

In general, EC50 refers to the concentration that produces a half-maximal response. In general, Emax refers to the greatest response seen or fitted, relative to the assay's reference.

Assay type in all cases: cell-based
One experiment deals with human GLP1R (Homo sapiens, UniProt P43220). The experiment can be described thus: Human GLP1R DERET internalization assay. As to conditions: HEK293-SNAP-hGLP1R-GloSensor cells. How it is done: (§1) Compounds 1 to 31 were tested in the following cellular assays that measure the intracellular cAMP concentration, beta-arrestin recruitment and receptor internalization. The cAMP is generated by the activation of GLP1R. The cAMP data obtained is shown in Table 1 (where S.E.M. is included, mean n=3 independent experiments+/−S.E.M). Beta-arrestin is recruited upon activation of GLP1R and the data obtained are shown in Table 2 (mean n=2 independent experiments, +/−S.D). The extent to which the GLP1R is internalized into the cell and away from the plasma membrane following activation is also shown in Table 2 (mean n=2 independent experiments, +/−S.D). EC50 for each assay is defined as the concentration of the compound that leads to half of the maximum response (after baseline correction). Emax is defined as the maximum response observed for the test compound, normalized to the maximum response observed for the endogenous ligand (GLP1(7-36)) to GLP1R.
The extent to which agonists internalize the human GLP1R was determined based on an optimized version of a RealTime FRET-based ‘DERET’ (Dissociation Enhanced Resonance Energy Transfer) assay. The technology relies on labeling of the SNAP-tagged GPCR with a SNAP-Lumi-Terbium (donor fluorophore, Cisbio, cat #SSNPTBD). The compounds are incubated with the cells over-expressing the GPCR of interest in the presence of an excess of fluorescein (acceptor fluorophore). When the GPCR is on the cell surface, the donor signal is quenched by the acceptor and the donor/acceptor ratio is low. As the GPCR internalizes, the donor signal is no longer quenched, and the acceptor is no longer excited so the donor/acceptor ratio increases.
HEK293-SNAP-hGLP1R-GloSensor cells (stably overexpressing SNAP-tagged hGLP1R) were seeded overnight in white 384-well poly-D-Lysine coated plates (Greiner Bio One, cat #781945) in regular DMEM growth medium (Gibco, cat #11965-092, 10% heat-inactivated FBS, 10 mM HEPES, 1× penicillin/streptomycin, 0.5 mg/mL geneticin (Gibco, cat #10131-035) and 0.25 mg/mL hygromycin B (Invitrogen, cat #10687010). On the assay day, cell medium was removed and 100 nM SNAP-Lumi-Tb reagent was added in Opti-MEM solution. The cells were incubated at 37° C. for 1 h. Cells were washed using a plate washer in assay buffer [1×HBSS (10× Gibco, cat #14065-056), 20 mM Hepes (Gibco, cat #15630-080), 1 mM CaCl2 (Fluka, cat #21114-1L), 1 mM MgCl2 (Ambion, cat #AM9530G) pH7.4], and 20 μL buffer with 0.1% BSA was added to each well. After leaving cells to equilibrate for ˜15 min at 37° C., 10 μL of Fluorescein (sodium salt, Sigma, cat #F6377, diluted in buffer) was added at 25 μM final concentration. To generate triplicate dose response curves, compounds were serially diluted 3-fold in assay buffer, then added to the cell assay plate to a final volume of 40 μL and final top concentrations starting at 30 μM. In the same plate and assay buffer as the tested compounds, a GLP1 (7-36) peptide (Bachem, cat #H-6795) control curve was included at a final top concentration of 1 μM in order to establish EC100. EC0 wells with buffer only were also included. The plate FRET fluorescence was measured immediately using a Perkin Elmer Envision with LANCE/DELFIA D400 single mirror, excitation filter X320, and emission filters M615_203 (donor emission) and M515 (acceptor emission), and then measured every 30 min. […] Plates were kept at 37° C. between reads. Data was expressed as the ratio of donor/acceptor emissions using Microsoft Excel and plotted in GraphPad Prism. In order to determine EC50 and Emax for internalization, data was calculated and expressed as percent of the GLP1 (7-36) EC100 control wells: [(sample signal−mean EC0 signal)/(mean EC100 of GLP1 (7-36) signal−mean EC0 signal)]*100 using Microsoft Excel. Curve fitting for EC50 determinations was performed using GraphPad Prism. The 4-parameter logistic model, Hill slope was used:
Y=Bottom+(Top−Bottom)/(1+10^((Log EC50−X)*Hill Slope)), […]

The target in experiment [1] is T1, human GLP1R (hGLP1R) (Homo sapiens, UniProt P43220). The experiment in a line: Human GLP1R β-arrestin recruitment assay (PathHunter). Further details: insert synthesized by GeneArt 93-0164 (cells); 93-0491 (vector bundle). As to conditions: CHO-hGLP1R-β-arrestin cells; for EC50: mean n=2, read-out: Beta-Arrestin assay EC50 Mean; for Emax: relative to GLP1(7-36), read-out: Beta-Arrestin assay Emax. The method, then: as §1
The extent to which agonists recruited β-arrestin was measured using the PathHunter® β-arrestin assay (DiscoverX). This assay measures binding of β-arrestin to the receptor using an enzyme complementation approach. […] When β-arrestin is recruited to the receptor the enzyme becomes active and generates luminescence in the presence of a chemiluminescent substrate (PathHunter® Detection Kit, DiscoverX cat #93-0001). Luminescence can be measured on a relevant detector. CHO-hGLP1R-β-arrestin cells stably overexpressing hGLP1R with Prolink tag and β-arrestin with EA tag were seeded at 20 μL per well in white 384-well poly-D-Lysine coated plates (Greiner Bio One, cat #781945) in Plating Reagent 2 (DiscoverX, cat #93-0563R2A), and incubated overnight at 37° C., 5% CO2 with humidity. The following day, agonists were prepared at 5 times the final required concentration. To generate triplicate dose response curves, compounds were serially diluted 3-fold in assay buffer (HBSS, 10 mM Hepes and 0.1% BSA), then added to the cell assay plate to a final volume of 25 μL and final top concentrations starting at 30 μM. In the same plate and assay buffer as the tested compounds, were EC100 control wells containing GLP1 (7-36) peptide (Bachem, cat #H-6795) at a final concentration of 1 μM and also EC0 control wells containing no compound. The plate was incubated at 37° C., 5% CO2 with humidity for 2 h after adding the compounds to the cells. Then the detection reagent was prepared (19 parts cell assay buffer, 5 parts substrate reagent 1 and 1 part substrate reagent 2 as per manufacturers recommendations, DiscoverX cat #93-0001), and 12 μL were added per well to the cell assay plate. The plate was incubated for an additional hour in the dark at RT. Luminescence was then measured with an Envision 2104 Multilabel reader with “TRF Light Unit, 337 nm” (Perkin Elmer) using the Ultra-Sensitive protocol setting “384-well US luminescence detector” with the 384-well luminescence aperture, 0.1 sec per well. β-arrestin recruitment was calculated and expressed as percent of the GLP1 (7-36) EC100 control wells: [(sample signal−mean EC0 signal)/(mean EC100 of GLP1 (7-36) signal−mean EC0 signal)]*100 using Microsoft Excel. Curve fitting for EC50 determinations was performed using GraphPad Prism. The 4-parameter logistic model, Hill slope was used: Y=Bottom+(Top−Bottom)/(1+10^((Log EC50−X)*Hill Slope)), where Y is the functional response; X is the compound concentration; bottom is A0 or the minimum value (at 0 dose); top is Ainf or the maximum value (at infinite dose); EC50 is the point of inflection (i.e. the point on the sigmoid shaped curve halfway between A0 and Ainf). The EC50 value was calculated in μM. Emax is the maximal activity detected within the concentration range, derived from the fitted curve relative to GLP1(7-36). […]
Background: Recruitment of arrestin is a read-out of receptor activation apart from second messengers.

For experiment [2], the target named is T1, human GLP1R (hGLP1R). The experiment can be described thus: Human GLP1R cAMP agonist assay (GloSensor). As to conditions: HEK293-SNAP-hGLP1R-GloSensor cells. Summed up:
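HEK293 cells stably expressing SNAP-tagged hGLP1R and the GloSensor-22F cAMP luciferase biosensor, pre-loaded 2 h with substrate, then exposed 12 min at rt to compound (30–0.06 μM, 0.5 mM IBMX, 0.1% BSA). Luminescence normalized to 2 nM GLP1(7-36); EC50 and Emax from 4-parameter logistic fit.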

T1 sequence (P43220 24-463): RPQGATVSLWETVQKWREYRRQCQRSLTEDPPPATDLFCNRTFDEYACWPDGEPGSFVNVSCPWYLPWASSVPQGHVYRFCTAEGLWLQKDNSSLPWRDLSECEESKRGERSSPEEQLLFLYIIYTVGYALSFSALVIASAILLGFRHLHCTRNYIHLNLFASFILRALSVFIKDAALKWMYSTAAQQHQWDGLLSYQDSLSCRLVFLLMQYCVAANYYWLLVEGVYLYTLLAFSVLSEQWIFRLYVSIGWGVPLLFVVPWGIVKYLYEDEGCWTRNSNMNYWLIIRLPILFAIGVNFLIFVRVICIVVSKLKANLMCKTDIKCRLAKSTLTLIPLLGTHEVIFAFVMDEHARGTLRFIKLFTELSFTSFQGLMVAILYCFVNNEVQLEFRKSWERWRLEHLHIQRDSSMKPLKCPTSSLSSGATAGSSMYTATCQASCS
Sequence of human GLP1R (P43220 24-463): as above

In the case of `C[C@]1(c2ccc(Cl)cc2F)Oc2cccc(C3CCN(Cc4nc5ccc(C(=O)O)cc5n4C[C@@H]4CCO4)CC3)c2O1` [Reference compound, 2-((4-((S)-2-(4-chloro-2-fluorophenyl)-2-methylbenzo[d][1,3]dioxol-4-yl)piperidin-1-yl)methyl)-1-(((S)-oxetan-2-yl)methyl)-1H-benzo[d]imidazole-6-carboxylic acid, reference compound], the EC50 at human GLP1R (mean n=2) was 0.015 µM; on human GLP1R (hGLP1R) [1] it was 0.123 µM. In addition, the Emax was determined as 87% at human GLP1R (relative to GLP1(7-36)) and 27% at human GLP1R (hGLP1R) [1].

Turning to `Cc1nc(CN2CCC(c3cccc4c3O[C@@](C)(c3ccc(Cl)cc3F)O4)CC2)n(C[C@@H]2CCO2)c1C(=O)O` [Compound C-3, 2-((4-((S)-2-(4-chloro-2-fluorophenyl)-2-methylbenzo[d][1,3]dioxol-4-yl)piperidin-1-yl)methyl)-4-methyl-1-(((S)-oxetan-2-yl)methyl)-1H-imidazole-5-carboxylic acid], the EC50 was above 30 µM at human GLP1R (hGLP1R) [1] and 0.00165 µM at human GLP1R (hGLP1R) [2] (intracellular cAMP, mean n=3 where SEM is given). For the same compound, the maximal effect (Emax) on human GLP1R (hGLP1R) [1] was 0%; at human GLP1R (hGLP1R) [2] (cAMP, normalized to GLP1(7-36) maximum response, read-out: Emax mean) it was 108%.

The values are drawn from patent publication US20240182456A1, “2-((4-((S)-2-(4-CHLORO-2-FLUOROPHENYL)-2-METHYLBENZO[D][1,3]DIOXOL-4-YL)PIPERIDIN-1-YL)METHYL)-1-(((S)-OXETAN-2-YL)METHYL)-1H-IMIDAZOLE DERIVATIVES AS ACTIVATORS OF THE GLP1 RECEPTOR FOR THE TREATMENT OF OBESITY” (Novartis AG, priority 2021, published 2024).
